Source: patent US20030134901A1, “Lipoxin compounds and their use in treating cell proliferative disorders” (priority 1993, published 2003)

Tests used:
[1] = target: T1, LTB4 specific binding sites of HL-60 cells (Homo sapiens, UniProt Q15722); test: 3H-LTB4 specific binding to HL-60 cells; settings: competitor 300 nM, differentiated HL-60 cells
T1 construct: endogenous in cells; host or cells: differentiated HL-60 cells, intact

[2] = tested on: Intact neutrophils from peripheral blood; test: LXA4 metabolism by intact neutrophils; type: in vitro ADME, human; settings: intact neutrophils of healthy donors
Description: Human PMN were obtained from healthy volunteers by gradient centrifugation of heparinized fresh venous blood (Böyum, A. ([…]) Scand. J. Clin. Lab. Invest. 21:77). HL-60 cells were seeded in RPMI supplemented with penicillin (100 U/ml), streptomycin (100 μ/ml), fetal bovine serum (10%) (Hyclone, Logan, Utah) and incubated (37° C. with 5% CO2 atmosphere) in plastic 250 ml flasks. Individual flasks containing […] HL-60 cells/ml were incubated in the presence or absence of phorbol 12-myristate 13-acetate (PMA) (10 or 16 nM, 24-27 h) and adherence was monitored for induction of macrophage-like phenotype as in Collins, S. J. (1987) Blood 70:1233. […]
Incubations with eicosanoids were stopped with cold methanol containing either PGB2 or 5-HETE as internal standards (5-HETE was used when 15-oxo-ETE was quantified). […] Formation of 15-oxo-ETE by 100,000 g supernatants (cf. Agins, A. P. et al. (1987) Agents Actions 21:397; Xun, C-Q. et al.(1991) Biochem. J. 279:553; and Sok, D-E. et al. (1988) Biochem. Biophys. Res. Commun. 156:524) was quantified after RP-HPLC using an ODS column (4.6 mm×25 cm) eluted with methanol/H2O/acetic acid (70:30:0.01, v/v/v) monitored at 280 nm with a flow rate of 1 ml/min. […] On-line spectra were recorded using a diode array detector (Hewlett-Packard 1040M series II) equipped with HPLC^3D ChemStation software (DOS series). […]

A549 cells = test: A549 cell proliferation, MTT assay; type: cell-based, human
Outline: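 A549 cells, ~2000/well, given compounds at 5-1000 nM or 0.15% ethanol vehicle after 24 h, quadruplicates, up to 96 h at 37° C. MTT added 4 h, dye extracted in acidified isopropanol and read at 570 nm; MTT signal linear with cell number.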

human skin fibroblasts = test: Fibroblast proliferation, MTT assay; type: cell-based; settings: Homo sapiens, Skin fibroblast; 100 nM, n=3
Source text: Human type II epithelial A549 cells from human lung carcinoma and normal human skin fibroblast (breast) were obtained from the American Type Culture Collection (Rockville, Md.). The A549 cell line originated from a human alveolar cell carcinoma and was a useful cell line because it was easily assessable and could be maintained in culture without contaminating tissue macrophages. (Lieber, M., et al (1976) A continuous tumor-cell line from a human lung carcinoma with properties of type II alveolar epithelial cells. Int. J Cancer Fibroblasts were utilized within their limited window of viability and their passage numbers were recorded (results are reported for cells from 3-5 passages). Epithelial A549 cells were seeded into T-75 cm^2 tissue culture flasks and maintained in F-12K medium supplemented with 10% heat-inactivated FBS, penicillin (50 U/mL) and streptomycin (50 (g/mL). Human PMN from healthy donors who had not taken ASA or other medications for at least two weeks were obtained by Ficoll-Hypaque gradient centrifugation and dextran sedimentation, (Böyum A. (1968) Isolation of mononuclear cells and granulocytes from human blood. […] Viability of A549 cells and PMN was determined by their ability to exclude trypan blue and were 95±2 and 97±1%, respectively.
A microculture 3,(4,5-dimethylthiazoyl-2-yl) 2,5 (diphenyl-tetrazolium bromide) (MTT) assay, (Marshall, N. J., et al. (1995) A critical assessment of the use of microculture tetrazolium assays to measure cell growth and function. Growth Regul. 5: 69-84.), was used to examine the actions of LXs and other eicosanoids on cell proliferation. A549 cells and fibroblasts from exponential-phase maintenance cultures were counted and dispensed within replicate 96-well culture plates in 100 μl volumes of medium (˜2000 cells/well). […] Dye solution was aspirated, wells were washed once with HBSS and dye taken up by the cells was extracted in 100 μl of isopropyl alcohol:1 N HCl (96:4, v/v) and quantitated at 570 nm using a microplate reader (Molecular Devices, Menlo Park, Calif.). […]

T1 sequence (Q15722 whole entry): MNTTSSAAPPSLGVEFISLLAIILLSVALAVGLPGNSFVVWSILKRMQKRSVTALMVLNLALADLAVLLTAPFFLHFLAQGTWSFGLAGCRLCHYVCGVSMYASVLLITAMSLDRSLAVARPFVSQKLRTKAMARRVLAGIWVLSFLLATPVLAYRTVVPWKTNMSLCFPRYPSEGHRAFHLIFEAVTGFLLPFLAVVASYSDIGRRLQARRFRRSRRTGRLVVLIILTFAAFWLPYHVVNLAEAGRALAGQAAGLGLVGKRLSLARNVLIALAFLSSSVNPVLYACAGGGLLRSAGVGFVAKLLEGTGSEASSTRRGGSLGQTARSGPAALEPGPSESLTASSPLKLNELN

**Q.** For `CCCCC[C@H](O)/C=C/C=C\C=C\C=C\[C@@H](O)[C@@H](O)CCCC(=O)O` [LXA4, (5S, 6R, 15S)-trihydroxy-7E, 9E, 11Z, 13E-eicosatetraenoic acid], which “competition with 3H-LTB4 (0.3 nM) binding” value [1] is on record?
**A.** unable to compete

**Q.** What about the “metabolism of exogenous LXA4” value [2] of the same compound?
**A.** did not significantly metabolize

**Q.** And the “inhibition of A549 cell proliferation over time” value (A549 cells; 1 μM, after 72 and 96 hours of treatment)?
**A.** inhibited A549 cell proliferation

**Q.** And the inhibition at 0.1 µM (A549 cells; Homo sapiens, A549, 10^−7 M, 72 hours at 37° C., mean ± SEM, 3 to 7 experiments)?
**A.** 16.3 ± 5.2%

**Q.** What about the IC50 (A549 cells; Homo sapiens, A549, MTT assay, 72 hours, read-out: half maximum inhibition (IC50) of A549 cell proliferation) of the same compound?
**A.** ~80 nM

**Q.** What about the inhibition at 0.1 µM (human skin fibroblasts) of the same compound?
**A.** 10.7%
